Test results: publication PMC7156724, “Potent BRD4 inhibitor suppresses cancer cell-macrophage interaction” (Nature Communications, 2020)
Several values for one entry are separate records, joined by “and”; a condition that tells them apart may be missing. Identical values can stand only once. Like-named read-outs stand apart in the source and are kept apart here.

Assay: In vivo pharmacokinetics study, mouse
Method: 4–6 weeks old female BALB/c nude mice were used for most experiments, with the exception of 6–8 weeks old female C57BL/6 mice were used for B16F10 experiments, and 6–8 weeks old male BALB/c nude mice and SD rats were used for pharmacokinetic experiments. All animals were purchased from Shanghai SIPPR-Bk Lab Animal Co., Ltd. All animals were housed under a regimen of 12 h light/12 h dark cycles and specific pathogen-free conditions. 5×10^6 NCI-H526, ES-2, MDA-MB231, A2780, A375, B16F10, and TMD-8 cells (0.1 ml) were injected subcutaneously into female nude mice. The melanoma patient-derived xenograft model was derived from a human melanoma sample (BRAF, NARS and NF1 wild type, and p53 mutant) removed from a patient in Xiangya Hospital. Surgically removed tumor fragments were implanted subcutaneously into female NSG mice. When the tumors grew to ~1000 mm^3, they were harvested and cryopreserved or immediately re-implanted for expansion or experiments. Mouse body weight and tumor sizes were measured every 3 days. Once the tumors grew to 150–200 mm^3, mice were treated with the compounds as described in the Figures. 1 × 10^6 A2780 cells (1 ml) were injected into the abdominal cavity of nude mice. Ascitic volume and tumor weight were measured by an electronic balance. All the procedures were evaluated and approved by the Institutional Animal Care and Use Committee of Central South University and Yale University.
Supplementary Figure 7. Pharmacokinetic profile of NHWD-870 using mouse and rat models.
(a,b) Plasma concentrations of NHWD-870 in healthy (a) mouse and (b) rat after intravenous (IV, 1.75 mg/kg for mouse and 1 mg/kg for rat) and oral (PO, 5 mg/kg) administration. Values shown on the right panels are mean ± SEM from 3 different animals. (c,d) Mean concentrations of NHWD-870 in the lungs (c) and tumors (d) of H526 xenograft model at the indicated hours after oral administration of 3 mg/kg NHWD-870 and BMS-98615821 on day 21. These mice were administrated the indicated drug daily for 21 days. Data are represented as mean ± SEM of 3 independent experiments. Source data are provided as a Source Data file. […]
9. In vivo pharmacokinetics study. Mouse and SD rat models were used to evaluate pharmacokinetic property of NHWD-870. NHWD-870 was administrated […]
Concentration of drugs in plasma, lung and tumor tissues were measured for the indicated time. […]

[1] = male, BALB/c nude, plasma, IV 1.75 mg/kg
[2] = male, BALB/c nude, plasma, PO 5 mg/kg

Cc1nnn(C)c1-c1cnc2c3c4cnn(C)c4ccc3n([C@H](c3ccccc3)C3CCOCC3)c2c1 [NHWD-870]
AUCExtrap (IV 1.75 mg/kg): 3.87±2.125%
T1/2 (IV 1.75 mg/kg, 1.75 mg/kg): 1.7 h
Plasma concentration (IV 1.75 mg/kg, 5 min, individual mice, 1.75 mg/kg): 547 ng/mL and 518 ng/mL
Plasma concentration (IV 1.75 mg/kg, 0.25 h, individual mice, 1.75 mg/kg): 431 ng/mL and 362 ng/mL
Plasma concentration (IV 1.75 mg/kg, 0.5 h, individual mice, 1.75 mg/kg): 399 ng/mL and 272 ng/mL
Plasma concentration (IV 1.75 mg/kg, 1 h, individual mice, 1.75 mg/kg): 295 ng/mL and 262 ng/mL
Plasma concentration (IV 1.75 mg/kg, 2 h, individual mice, 1.75 mg/kg): 281 ng/mL and 264 ng/mL
Plasma concentration (IV 1.75 mg/kg, 4 h, individual mice, 1.75 mg/kg): 215 ng/mL and 197 ng/mL
Plasma concentration (IV 1.75 mg/kg, 8 h, individual mice, 1.75 mg/kg): 41.2 ng/mL and 70.8 ng/mL
Plasma concentration (IV 1.75 mg/kg, 24 h, individual mice, 1.75 mg/kg): 0.876 ng/mL and 1.36 ng/mL
AUCExtrap (PO 5 mg/kg): 3.04±0.685%
F (%), oral bioavailability (PO 5 mg/kg, 5 mg/kg): 70%
Plasma concentration (PO 5 mg/kg, 0.25 h, individual mice, 5 mg/kg): 515 ng/mL and 150 ng/mL and 133 ng/mL
Plasma concentration (PO 5 mg/kg, 0.5 h, individual mice, 5 mg/kg): 630 ng/mL and 247 ng/mL and 269 ng/mL
Plasma concentration (PO 5 mg/kg, 1 h, individual mice, 5 mg/kg): 688 ng/mL and 321 ng/mL and 337 ng/mL
Plasma concentration (PO 5 mg/kg, 2 h, individual mice, 5 mg/kg): 593 ng/mL and 414 ng/mL
Plasma concentration (PO 5 mg/kg, 4 h, individual mice, 5 mg/kg): 308 ng/mL and 354 ng/mL
Plasma concentration (PO 5 mg/kg, 6 h, individual mice, 5 mg/kg): 62.6 ng/mL and 255 ng/mL and 189 ng/mL
Plasma concentration (PO 5 mg/kg, 8 h, individual mice, 5 mg/kg): 37.2 ng/mL and 209 ng/mL and 111 ng/mL
Plasma concentration (PO 5 mg/kg, 24 h, individual mice, 5 mg/kg): 0.953 ng/mL
AUC(0-inf) [1]: 993 ± 280 ng·h/mL
AUC(0-t) [1]: 939 ± 242 ng·h/mL
C0 [1]: 630 ± 70.5 ng/mL
MRT inf [1]: 2.22 ± 0.42 h
clearance [1]: 35 ± 7.45 mL/min/kg
Vd (male, BALB/c nude, plasma, IV 1.75 mg/kg, read-out: Vdss): 4.17 ± 0.42 L/kg
AUC(0-inf) [2]: 2010 ± 165 ng·h/mL
AUC(0-t) [2]: 1950 ± 172 ng·h/mL
Cmax [2]: 467 ± 74 ng/mL
MRT inf [2]: 3.16 ± 0.24 h
Tmax [2]: 1.33 ± 0.29 h
concentration at 24 h (male, BALB/c nude, plasma, PO 5 mg/kg, 24 h, individual mice, read-out: Plasma concentration): 1.94 ng/mL
half-life (male, BALB/c nude, plasma, iv, 1.75 mg/kg, IV 1.75 mg/kg): 1.73 ± 0.325 h
concentration at 5 min (male, BALB/c nude, plasma, iv, 1.75 mg/kg, IV 1.75 mg/kg, 5 min, individual mice, read-out: Plasma concentration): 614 ng/mL
concentration at 5 min (male, BALB/c nude, plasma, iv, 1.75 mg/kg, IV 1.75 mg/kg, 5 min, mean of 3 mice, read-out: Plasma concentration, Mean): 560 ng/mL
concentration at 0.25 h (male, BALB/c nude, plasma, iv, 1.75 mg/kg, IV 1.75 mg/kg, 0.25 h, individual mice, read-out: Plasma concentration): 491 ng/mL
concentration at 0.25 h (male, BALB/c nude, plasma, iv, 1.75 mg/kg, IV 1.75 mg/kg, 0.25 h, mean of 3 mice, read-out: Plasma concentration, Mean): 428 ng/mL
concentration at 0.5 h (male, BALB/c nude, plasma, iv, 1.75 mg/kg, IV 1.75 mg/kg, 0.5 h, individual mice, read-out: Plasma concentration): 388 ng/mL
concentration at 0.5 h (male, BALB/c nude, plasma, iv, 1.75 mg/kg, IV 1.75 mg/kg, 0.5 h, mean of 3 mice, read-out: Plasma concentration, Mean): 353 ng/mL
concentration at 1 h (male, BALB/c nude, plasma, iv, 1.75 mg/kg, IV 1.75 mg/kg, 1 h, individual mice, read-out: Plasma concentration): 417 ng/mL
concentration at 1 h (male, BALB/c nude, plasma, iv, 1.75 mg/kg, IV 1.75 mg/kg, 1 h, mean of 3 mice, read-out: Plasma concentration, Mean): 325 ng/mL
concentration at 2 h (male, BALB/c nude, plasma, iv, 1.75 mg/kg, IV 1.75 mg/kg, 2 h, individual mice, read-out: Plasma concentration): 362 ng/mL
concentration at 2 h (male, BALB/c nude, plasma, iv, 1.75 mg/kg, IV 1.75 mg/kg, 2 h, mean of 3 mice, read-out: Plasma concentration, Mean): 302 ng/mL
concentration at 4 h (male, BALB/c nude, plasma, iv, 1.75 mg/kg, IV 1.75 mg/kg, 4 h, individual mice, read-out: Plasma concentration): 190 ng/mL
concentration at 4 h (male, BALB/c nude, plasma, iv, 1.75 mg/kg, IV 1.75 mg/kg, 4 h, mean of 3 mice, read-out: Plasma concentration, Mean): 201 ng/mL
concentration at 8 h (male, BALB/c nude, plasma, iv, 1.75 mg/kg, IV 1.75 mg/kg, 8 h, individual mice, read-out: Plasma concentration): 50.2 ng/mL
concentration at 8 h (male, BALB/c nude, plasma, iv, 1.75 mg/kg, IV 1.75 mg/kg, 8 h, mean of 3 mice, read-out: Plasma concentration, Mean): 54.1 ng/mL
concentration at 24 h (male, BALB/c nude, plasma, iv, 1.75 mg/kg, IV 1.75 mg/kg, 24 h, individual mice, read-out: Plasma concentration): 0.937 ng/mL
concentration at 24 h (male, BALB/c nude, plasma, iv, 1.75 mg/kg, IV 1.75 mg/kg, 24 h, mean of 3 mice, read-out: Plasma concentration, Mean): 1.06 ng/mL
half-life (male, BALB/c nude, plasma, po, 5 mg/kg, PO 5 mg/kg): 1.29 ± 0.055 h
concentration at 0.25 h (male, BALB/c nude, plasma, po, 5 mg/kg, PO 5 mg/kg, 0.25 h, mean of 3 mice, read-out: Plasma concentration, Mean): 266 ng/mL
concentration at 0.5 h (male, BALB/c nude, plasma, po, 5 mg/kg, PO 5 mg/kg, 0.5 h, mean of 3 mice, read-out: Plasma concentration, Mean): 382 ng/mL
concentration at 1 h (male, BALB/c nude, plasma, po, 5 mg/kg, PO 5 mg/kg, 1 h, mean of 3 mice, read-out: Plasma concentration, Mean): 449 ng/mL
concentration at 2 h (male, BALB/c nude, plasma, po, 5 mg/kg, PO 5 mg/kg, 2 h, individual mice, read-out: Plasma concentration): 528 ng/mL
concentration at 2 h (male, BALB/c nude, plasma, po, 5 mg/kg, PO 5 mg/kg, 2 h, mean of 3 mice, read-out: Plasma concentration, Mean): 512 ng/mL
concentration at 4 h (male, BALB/c nude, plasma, po, 5 mg/kg, PO 5 mg/kg, 4 h, individual mice, read-out: Plasma concentration): 299 ng/mL
concentration at 4 h (male, BALB/c nude, plasma, po, 5 mg/kg, PO 5 mg/kg, 4 h, mean of 3 mice, read-out: Plasma concentration, Mean): 320 ng/mL
concentration at 6 h (male, BALB/c nude, plasma, po, 5 mg/kg, PO 5 mg/kg, 6 h, mean of 3 mice): 169 ng/mL
concentration at 8 h (male, BALB/c nude, plasma, po, 5 mg/kg, PO 5 mg/kg, 8 h, mean of 3 mice, read-out: Plasma concentration, Mean): 119 ng/mL
concentration at 24 h (male, BALB/c nude, plasma, po, 5 mg/kg, PO 5 mg/kg, 24 h, individual mice, read-out: Plasma concentration): 1.06 ng/mL
concentration at 24 h (male, BALB/c nude, plasma, po, 5 mg/kg, PO 5 mg/kg, 24 h, mean of 3 mice, read-out: Plasma concentration, Mean): 1.32 ng/mL
bioavailability (male, BALB/c nude, plasma, po, 5 mg/kg, PO 5 mg/kg, read-out: F (%), oral bioavailability): 70.8 ± 5.8%
